These results are taken from ChEMBL document CHEMBL3046813, “Novel tetranortriterpenoid derivatives from Munronia henryi” (2003).

The test system of assay [1] is Pieris brassicae. The assay can be described thus: Antifeedant activity against Pieris brassicae third-instar larvae reared on compound pre-treated Brassica oleracea L. leaf disks assessed as insect mortality at 1000 ppm measured after 6 days by conventional leaf disk method. Type of assay: functional. The following applies: foliar.
Assay [2] relates to Pieris brassicae. The experiment in a line: Antifeedant activity against Pieris brassicae third-instar larvae reared on compound pre-treated Brassica oleracea L. leaf disks assessed antifeeding rate at 1000 ppm measured after 48 hr by conventional leaf disk method. Type of assay: functional.

In the case of `C#C[C@@H]1C[C@H]2O[C@]23C(=C)[C@@H]2[C@@H](OC(=O)C=C[C@@]2(C)[C@H]2CC(=O)OC2(C)C)[C@H](OC(C)=O)[C@@]13C` [MUNRONIN E], the mortality (in general, the share of the test organisms that died) at 1000 ppm in assay [1] is 10%. The AFI in assay [2] amounted to 37.1%.

With `C=C1[C@@H]2[C@@H](OC(=O)C=C[C@@]2(C)[C@H]2CC(=O)OC2(C)C)[C@H](OC(C)=O)[C@@]2(C)[C@H](C3=CC(O)OC3=O)C[C@H]3O[C@]132` (some centres undefined) [MUNRONIN A], the mortality at 1000 ppm in assay [1] came to 20%. The AFI in assay [2] is 0%.

Regarding `C/C=C(\C)C(=O)O[C@H]1C[C@@H](OC(C)=O)[C@@]2(C(=O)OC)CO[C@H]3[C@@H](O)[C@@](C)([C@]45O[C@@]4(C)[C@@H]4C[C@H]5O[C@@H]5OC=C[C@@]54O)[C@H]4[C@]1(CO[C@]4(O)C(=O)OC)[C@@H]32` [AZADIRACHTIN A], the mortality at 1000 ppm in assay [1] worked out at 100%. For the same compound, in assay [2], the AFI is recorded as 99.5%.

In the case of `C=C1[C@@H]2[C@@H](OC(=O)C=C[C@@]2(C)[C@H]2CC(=O)OC2(C)C)[C@H](OC(C)=O)[C@@]2(C)[C@H](C3=CCOC3=O)C[C@H]3O[C@]132` [MUNRONIN C], the mortality at 1000 ppm in assay [1] turned out to be 10%. Besides, in assay [2], the AFI amounted to 31%.

Turning to `C=C1[C@@H]2[C@@H](OC(=O)C=C[C@@]2(C)[C@H]2CC(=O)OC2(C)C)[C@H](OC(C)=O)[C@@]2(C)[C@H](C3=CC(=O)OC3O)C[C@H]3O[C@]132` (some centres undefined) [MUNRONIN B], in assay [1], the mortality at 1000 ppm is 10%. Also, in assay [2], the AFI was 20.9%.

With `C=C1[C@@H]2[C@@H](OC(=O)C=C[C@@]2(C)[C@H]2CC(=O)OC2(C)C)[C@H](OC(C)=O)[C@@]2(C)[C@H](C3=CCNC3=O)C[C@H]3O[C@]132` [MUNRONIN D], the mortality at 1000 ppm in assay [1] is 10%. Moreover, the AFI in assay [2] amounted to 28%.

For `C=C1[C@@H]2[C@@H](OC(=O)C=C[C@@]2(C)[C@H]2CC(=O)OC2(C)C)[C@H](OC(C)=O)[C@@]2(C)[C@H](C(=O)O)C[C@H]3O[C@]132` [MUNRONIN F], the mortality at 1000 ppm in assay [1] came out at 0%. In addition, the AFI in assay [2] is 0%.
